We go through 26 compounds from ChEMBL document CHEMBL3091401, “Discovery of a potent respiratory syncytial virus RNA polymerase inhibitor” (Bioorg Med Chem Lett, 2013).

Values after ≈ are worked out from the molar mass of the structure shown.

Data set [1] in a line: Cytotoxicity against human Hep2 cells. In kind it is cell-based, HEp-2.
Data set [2] in a line: Aqueous solubility of the compound. In kind it is physicochemical. To be noted: buffer.
Data set [3] concerns Respiratory syncytial virus. As to the kind of experiment: Antiviral activity against Respiratory syncytial virus A2 infected in human Hep2 cells after 3 days by ELISA. It is filed as functional, organism-based. As to conditions: A2, HEp-2, 72 h. On the technique in general: ELISA stands for enzyme-linked immunosorbent assay.
Data set [4] relates to Respiratory syncytial virus. Description: Antiviral activity against Respiratory syncytial virus A2 infected in hamster BHK21 cells after 2 days by luciferase reporter gene assay. It is filed as functional, organism-based. As to conditions: human respiratory syncytial virus, A2, BHK-21, 48 h. For orientation: A reporter such as luciferase makes a cellular process visible.

The subject of data set [5] is Respiratory syncytial virus. Description: Antiviral activity against Respiratory syncytial virus B-Washington infected in human Hep2 cells after 3 days by ELISA. In kind it is functional, organism-based. To be noted: HEp-2, 72 h.
Data set [6] in a line: Cytotoxicity against hamster BHK21 cells. It is filed as cell-based, Mesocricetus auratus, BHK-21.
Data set [7] is described as follows: Absorption half life in rat lungs at 10 ug/kg administered intratracheally as solution. It is filed as ADME, tissue-based. To be noted: lung, inhaled or intranasal, 0.01 mg/kg, read-out: t1/2abs.

Usually CC50 stands for the concentration giving 50% cytotoxicity. A low value points to harm at low concentration. Usually solubility stands for the dissolved amount per volume that the medium holds. Usually EC50 stands for the midpoint of the concentration-response curve. Higher therefore signals lower potency in that assay.

For `O=C(NC1CC1)c1cc2c(s1)-c1ccccc1N(C(=O)c1ccc(NC(=O)c3cccnc3N3CCC4(CCOCC4)CC3)cc1)CC2`, in data set [1], the half-maximal cytotoxic concentration (CC50) was above 50 µM. The compound also registered a solubility in data set [2] below 1 µM. The EC50 amounted to 0.03 µM in data set [3], 0.04 µM in data set [4] and 2.2 µM in data set [5].

Turning to `O=C(NC1CC1)c1cc2c(s1)-c1ccccc1N(C(=O)c1ccc(NC(=O)c3cccnc3N3CC4(CCOCC4)C3)cc1)CC2`, in data set [1], the CC50 is above 50 µM. In data set [2], the solubility was below 1 µM. The values for the EC50 in data set [3], in data set [4] and in data set [5] were 0.01 µM, below 0.007 µM and 0.5 µM, respectively.

On to `O=C(NC1CC1)c1cc2c(s1)-c1ccccc1N(C(=O)c1ccc(NC(=O)c3ccncc3N3CCC4(CC3)COC4)cc1)CC2`, for which the 50% cytotoxic concentration (CC50) in data set [1] was found to be 4.8 µM. The compound further had a solubility in data set [2] below 1 µM. Further, the values for the half-maximal effective concentration (EC50) in data set [3], in data set [4] and in data set [5] were below 0.21 µM, 0.16 µM and 5.1 µM, respectively.

`O=C(NC1CC1)c1cc2c(s1)-c1ccccc1N(C(=O)c1ccc(NC(=O)c3cnccc3N3CCC4(CC3)COC4)cc1)CC2` displayed a CC50 in data set [1] of 34 µM. Also, the concentration in solution in data set [2] (solubility) was 9 µM (≈ 5.7 µg/mL). The concentration for a half-maximal effect (EC50) came to 0.68 µM in data set [3], 0.57 µM in data set [4] and 14 µM in data set [5].

`O=C(NC1CC1)c1cc2c(s1)-c1ccccc1N(C(=O)c1ccc(NC(=O)c3ncccc3N3CCC4(CC3)COC4)cc1)CC2`: the half-maximal cytotoxic concentration (CC50) in data set [1] stood at 43 µM. In addition, in data set [2], the solubility was below 1 µM. The EC50 in data set [3] was found to be 0.47 µM; in data set [4], 0.35 µM; in data set [5] it was 49 µM.

Take `O=C(NC1CC1)c1cc2c(s1)-c1ccccc1N(C(=O)c1ccc(NC(=O)c3ccccc3N3CCC4(CC3)COC4)cc1)CC2`: the half-maximal cytotoxic concentration (CC50) in data set [1] was above 50 µM. The solubility in data set [2] was below 1 µM. Besides, the values for the EC50 in data set [3], in data set [4] and in data set [5] were below 0.21 µM, 0.19 µM and above 50 µM, respectively.

`COc1ccc(C(=O)Nc2ccc(C(=O)N3CCc4cc(C(=O)NC5CC5)sc4-c4ccccc43)cc2)c(N2CCC3(CC2)COC3)n1` yielded a 50% cytotoxic concentration (CC50) in data set [1] above 50 µM. Also, the solubility in data set [2] was below 1 µM. In addition, the values for the EC50 in data set [3], in data set [4] and in data set [5] were below 0.21 µM, 0.02 µM and 1.8 µM, respectively.

For the compound `O=C(NC1CC1)c1cc2c(s1)-c1ccccc1N(C(=O)c1ccc(NC(=O)c3cccnc3N3CCCC3)nc1)CC2`, the CC50 in data set [6] was above 50 µM. Further, in data set [2], the concentration in solution (solubility) came to 3 µM (≈ 1.74 µg/mL). The EC50 in data set [3], in data set [4] and in data set [5] was above 50 µM throughout.

In data set [6], `O=C(NC1CC1)c1cc2c(s1)-c1ccccc1N(C(=O)[C@H]1CC[C@H](NC(=O)c3cccnc3N3CCCC3)CC1)CC2` came in with a CC50 above 50 µM. This compound had a solubility in data set [2] of 11 µM (≈ 6.42 µg/mL). In data set [4], this compound yielded an EC50 above 50 µM.

In the case of `O=C(NC1CC1)c1cc2c(s1)-c1ccccc1N(C(=O)N1CCC(NC(=O)c3cccnc3N3CCCC3)CC1)CC2`, the CC50 in data set [6] was above 50 µM. Also, the concentration in solution in data set [2] (solubility) came to 26 µM (≈ 15.2 µg/mL). Also, the concentration for a half-maximal effect (EC50) in data set [4] is 14 µM.

As for `O=C(NC1CC1)c1cc2c(s1)-c1ccccc1N(C(=O)[C@H]1C[C@@H](NC(=O)c3cccnc3N3CCCC3)C1)CC2`, in data set [6], the half-maximal cytotoxic concentration (CC50) was above 50 µM. For the same compound, the concentration in solution in data set [2] (solubility) came to 2 µM (≈ 1.11 µg/mL). The compound also came in with a half-maximal effective concentration (EC50) in data set [4] above 50 µM.

In data set [6], `O=C(NC1CC1)c1cc2c(s1)-c1ccccc1N(C(=O)[C@H]1C[C@H](NC(=O)c3cccnc3N3CCCC3)C1)CC2` returned a CC50 above 50 µM. This compound also came in with a solubility in data set [2] of 3 µM (≈ 1.67 µg/mL). Moreover, the EC50 in data set [4] came out at 16 µM.

For `O=C(NC1CC1)c1cc2c(s1)-c1cnccc1N(C(=O)c1ccc(NC(=O)c3cccnc3N3CCCC3)cc1)CC2`, the CC50 in data set [6] is above 50 µM. Moreover, the concentration in solution in data set [2] (solubility) came to 1 µM (≈ 0.579 µg/mL). Also, the results for the half-maximal effective concentration (EC50) in data set [3], in data set [4] and in data set [5] were 1.1 µM, 2.2 µM and above 50 µM, respectively.

In turn, `O=C(NC1CC1)c1cc2c(s1)-c1cccnc1N(C(=O)c1ccc(NC(=O)c3cccnc3N3CCCC3)cc1)CC2` displayed a CC50 in data set [6] above 50 µM. Further, the solubility in data set [2] worked out at 10 µM (≈ 5.79 µg/mL). Besides, the EC50 in data set [3] was 7.8 µM; in data set [4], 8.6 µM; in data set [5] it was above 50 µM.

In the case of `O=C(NC1CC1)c1cc2n(n1)CCN(C(=O)c1ccc(NC(=O)c3cccnc3N3CCCC3)cc1)c1ccccc1-2`, the cytotoxic concentration (CC50) in data set [6] was above 50 µM. In data set [2], this compound had a solubility of 32 µM (≈ 18 µg/mL). For the same compound, the 50% effective concentration (EC50) worked out at 20 µM in data set [3], 9 µM in data set [4] and 50 µM in data set [5].

As for `O=C(NC1CC1)c1cn2c(n1)-c1ccccc1N(C(=O)c1ccc(NC(=O)c3cccnc3N3CCCC3)cc1)CC2`, the CC50 in data set [6] is above 50 µM. Besides, in data set [2], the solubility came out at 121 µM (≈ 68 µg/mL). The 50% effective concentration (EC50) in data set [3] is 50 µM; in data set [4], 22 µM; in data set [5] it was 50 µM.

Consider `O=C(NC1CC1)c1cc2c(s1)-c1ccccc1N(C(=O)c1ccc(NC(=O)c3cccnc3N3CCOCC3)cc1)CC2`, for which, in data set [1], the CC50 was above 50 µM. Further, in data set [2], the solubility was found to be 36 µM (≈ 21.4 µg/mL). Also, the EC50 in data set [3] was 0.23 µM; in data set [4], 0.63 µM; in data set [5], 17 µM.

In turn, `O=C(NC1CC1)c1cc2c(s1)-c1ccccc1N(C(=O)c1ccc(NC(=O)c3cccnc3N3CCN(CCO)CC3)cc1)CC2` came in with a CC50 in data set [1] above 50 µM. This compound also had a solubility in data set [2] of 40 µM (≈ 25.5 µg/mL). In addition, the concentration giving a half-maximal response (EC50) was 8 µM in data set [3], 13 µM in data set [4] and above 50 µM in data set [5].

In turn, `O=C(NC1CC1)c1cc2c(s1)-c1ccccc1N(C(=O)c1ccc(NC(=O)c3cccnc3N3CC[S+]([O-])CC3)cc1)CC2` showed a CC50 in data set [1] above 50 µM. Besides, the concentration in solution in data set [2] (solubility) was 26 µM (≈ 16.3 µg/mL). The EC50 in data set [3] was 9.6 µM; in data set [4], 12 µM; in data set [5], above 50 µM.

Turning to `O=C(NC1CC1)c1cc2c(s1)-c1ccccc1N(C(=O)c1ccc(NC(=O)c3cccnc3N3CCS(=O)(=O)CC3)cc1)CC2`, the CC50 in data set [1] is above 50 µM. This compound showed a solubility in data set [2] of 4 µM (≈ 2.57 µg/mL). Further, the EC50 in data set [3] is 2.2 µM; in data set [4] it was 3.6 µM; in data set [5], above 50 µM.

`CN(C)CC1(O)CN(c2ncccc2C(=O)Nc2ccc(C(=O)N3CCc4cc(C(=O)NC5CC5)sc4-c4ccccc43)cc2)C1` returned a CC50 in data set [1] above 50 µM. The solubility in data set [2] was above 100 µM. For the same compound, the concentration giving a half-maximal response (EC50) in data set [3], in data set [4] and in data set [5] was above 50 µM throughout.

Turning to `O=C(NC1CC1)c1cc2c(s1)-c1ccccc1N(C(=O)c1ccc(NC(=O)c3cccnc3N3CCC4(CC3)COC4)cc1)CC2`, the CC50 in data set [1] is above 50 µM. In data set [2], this compound returned a solubility of 2 µM (≈ 1.27 µg/mL). In addition, in data set [7], the half-life is below 1 min. For the same compound, the EC50 stood at 0.01 µM in data set [3], 0.01 µM in data set [4] and 1 µM in data set [5].

Turning to `CN1CC2(CCN(c3ncccc3C(=O)Nc3ccc(C(=O)N4CCc5cc(C(=O)NC6CC6)sc5-c5ccccc54)cc3)CC2)C1`, it took 34 µM to reach half-maximal cytotoxicity in data set [1] (CC50). In data set [2], this compound came in with a solubility of 55 µM (≈ 35.6 µg/mL). Further, the results for the half-maximal effective concentration (EC50) in data set [3], in data set [4] and in data set [5] were 34 µM, 8.5 µM and 17 µM, respectively.

In turn, `CC(=O)N1CC2(CCN(c3ncccc3C(=O)Nc3ccc(C(=O)N4CCc5cc(C(=O)NC6CC6)sc5-c5ccccc54)cc3)CC2)C1` had a cytotoxic concentration (CC50) in data set [1] of 34 µM. For the same compound, in data set [2], the concentration in solution (solubility) was 4 µM (≈ 2.7 µg/mL). Moreover, the half-maximal effective concentration (EC50) amounted to 5.3 µM in data set [3], 9 µM in data set [4] and 39 µM in data set [5].

With `O=C(NC1CC1)c1cc2c(s1)-c1ccccc1N(C(=O)c1ccc(NC(=O)c3cccnc3N3CCCC3)cc1)CC2`, the 50% cytotoxic concentration (CC50) in data set [6] and in data set [1] was above 50 µM throughout. The compound also came in with a solubility in data set [2] below 1 µM. The 50% effective concentration (EC50) was 0.15 µM in data set [3], 0.31 µM in data set [4] and above 50 µM in data set [5].

Turning to `O=C(NC1CC1)c1cc2c(s1)-c1ccccc1N(C(=O)c1ccc(NC(=O)c3cccnc3N3CCCC3)cn1)CC2`, the CC50 in data set [6] was above 50 µM. This compound registered a solubility in data set [2] of 3 µM (≈ 1.74 µg/mL). Besides, the values for the 50% effective concentration (EC50) in data set [3], in data set [4] and in data set [5] were 2.4 µM, 3.7 µM and above 50 µM, respectively.
